“Also recorded” adds a separate entry of the source.
How the values were obtained:
[1] = molecular target: TTR binding to RBP (Homo sapiens, UniProt P02753); experiment: Size exclusion study of TTR binding to RBP (Example 16); details: for binding of ligand-RBP to TTR: 10 μM RBP, 10 μM TTR, room temperature, 1 hour
Protocol: Apo-RBP at 10 μM was incubated with 50 μM of MPR in PBS at room temperature for 1 hour. 10 μM of TTR was then added to the solution, and the mixture was incubated for another hour at room temperature. 50 μl of the sample mixtures with and without TTR addition were analyzed by BioRad Bio-Sil SEC125 Gel Filtration Column (300×7.8 mm). In control experiments, atROL-RBP and atROL-RBP-TTR mixture were analyzed in the same manner.

[2] = molecular target: Apo-RBP (Homo sapiens, UniProt P02753); experiment: Fluorescence quenching study with Apo-RBP (Example 15); assay type: binding
Protocol: Apo-RBP at 0.5 μM was incubated with 0, 0.25, 0.5, 1 and 2 μM of MPR in PBS at room temperature for 1 hour, respectively. As controls, the same concentration of Apo-RBP was also incubated with 1 μM of HPR or 1 μM of atROL. All mixtures contained 0.2% Ethanol (v/v). The emission spectra were measured between 290 nm to 550 nm with excitation wavelength at 280 nm and 3 nm bandpass.

[3] = tested on: abca4 null mutant mice; experiment: A2E and A2PE-H2 in eyes after chronic treatment (HPLC); assay type: in vivo, mouse; details: 13-cis retinoic acid 40 mg/kg, chronic (1 month)
Protocol: Tissue Extraction. Eye samples were thawed on ice in 1 ml of PBS, pH 7.2 and homogenized by hand using a Duall glass-glass homogenizer. The sample was further homogenized following the addition of 1 ml chlorofomm/methanol (2:1, v/v). The sample was transferred to a boroscilicate tube and lipids were extracted into 4 mls of chloroform. The organic extract was washed with 3 mls PBS, pH 7.2 and the samples were then centrifuged at 3,000×g, 10 min. The choloroform phase was decanted and the aqueous phase was re-extracted with another 4 mls of chloroform. Following centrifugation, the chloroform phases were combined and the samples were taken to dryness under nitrogen gas. Samples residues were resuspended in 100 μl hexane and analyzed by HPLC as described below.
HPLC Analysis. Chromatographic separations were achieved on an Agilent Zorbax Rx-Sil Column (5 μm, 4.6×250 mm) using an Agilent 1100 series liquid chromatograph equipped with fluorescence and diode array detectors. The mobile phase (hexane/2-propanol/ethanol/25 mM KH2PO4, pH 7.0/acetic acid; 485/376/100/50/0.275, v/v) was delivered at 1 ml/min. Sample peak identification was made by comparison to retention time and absorbance spectra of authentic standards. Data are reported as peak fluorescence (L.U.) obtained from the fluorescence detector.
We initiated a one-month study to evaluate the effects of HPR on reduction of A2E and A2E precursors in abca4 null mutant mice. HPR was administered in DMSO (20 mg/kg, ip) to abca4 null mutant mice (BL6/129, aged 2 months) daily for a period of 28 days. Control age/strain matched mice received only the DMSO vehicle. Mice were sampled at 0, 14, and 28 days (n=3 per group), the eyes were enucleated and chloroform-soluble constituents (lipids, retinoids and lipid-retinoid conjugates) were extracted. Mice were sacrificed by cervical dislocation, the eyes were enucleated and individually snap frozen in cryo vials. The sample extracts were then analyzed by HPLC with on-line fluorescence detection. Results from this study show remarkable, early reductions in the A2E precursor, A2PE-H2, see FIG. 4a, and subsequent reductions in A2E, see FIG. 4b. […] A similar study may be undertaken to ascertain effects of HPR treatment on the electroretinographic and morphological phenotypes.
ABCA4 null mutant mice were given the indicated dose of HPR in DMSO or DMSO alone daily for 28 days (n=16 mice per treatment group). At study onset, mice in the 2.5 mg/kg group were 2 months of age, mice in the other treatment groups were 3 months of age. At the indicated times, representative mice were taken from each group (n =4) for analysis of A2E precursor compounds (see FIG. 10, A2PE-H2, panels A, C and E) and A2E (see FIG. 10, panels B, D and F). Eyes were enucleated, hemisected and lipid soluble components were extracted from the posterior pole by chloroform/methanol-water phase partitioning. Sample extracts were analyzed by LC. Identity of the eluted compounds was confirmed by UV-vis absorption spectroscopy and co-elution of sample peaks with authentic standards. Note: limitations in appropriately age and strain-matched mice in the 10 mg/kg group prevented analysis at the 14-day interval.
Extraction and Analysis of Retinoids and A2E. Steady-state levels of retinoids and A2E in eyecups of ABCA4−/− mice were determined following daily administration (28 days) of HPR (FIG. 12). Mice were sacrificed, the eyes enucleated, and the posterior portion of each eye was used for extraction of retinoids or A2E. Methodologies used for extraction of retinoids and A2E from eye tissue and HPLC analysis techniques have been described. See, e.g., Mata N L, Weng J, Travis G H. Biosynthesis of a major lipofuscin fluorophore in mice and humans with ABCR-mediated retinal and macular degeneration. Proc Natl Acad Sci USA. 2000; 97:7154-7159; Weng J, et al.; Cell. 1999;98:13-23; Mata N L, et al.; Invest. Ophthalmol. Visual Sci. 2001; 42:1685-1690. […]

[4] = tested on: wild-type and abca4 −/− mice; details: mouse, in vivo
Text: Delayed-dark adaptation can be further exacerbated by compounds which reduce the rate of rhodopsin regeneration (e.g., 13-cis retinoic acid). Although compounds such as HPR, which reduce total ocular retinoid levels, may also contribute to delayed-dark adaptation, the effect is less pronounced. This point was illustrated in studies which examined the effects of chronic (1 month) 13-cis retinoic acid or HPR administration on electrophysiology of the retina. […] Following exposure to a light source which bleaches approximately 40% of the visual chromophore, wild-type mice require ˜1 hour to regain dark sensitivity (1.0 value on the y-axis); untreated abca4 −/− mice require ˜3-4 hours. 13-cis retinoic acid treatment prolongs the time required to regain dark sensitivity to several hours. […] This finding is relevant for human patients affected with AMD.
Panels D-F of FIG. 9 are electrophysiological measurements of rod function (panel D), rod and cone function (panel E) and recovery from photobleaching (panel F).

[5] = tested on: abca4 −/− mice; experiment: A2E levels after withdrawal of chronic treatment; assay type: in vivo, mouse
Protocol: Latent Effects of HPR on Arresting A2E Accumulation —One feature identified during the HPR trials was a therapeutic latency effect following withdrawal of HPR. In these studies, chronic treatment of abca4 −/− mice (10 mg HPR/kg, i.p.) was stopped after 28 days. A2E levels were then measured 12, 28 and 42 days following the final HPR dose. […] This effect was not observed in animals treated with 13-cis retinoic acid, a result that may be due to the capacity of RPE cells to adapt to, and maintain, low steady-state retinoid levels. […] These findings indicate that high steady-state levels of competitive inhibitors such as 13-cis retinoic acid must be maintained for therapeutic efficacy.

[6] = tested on: mice; details: cited from earlier work

Row | Structure (SMILES) | binding of ligand-RBP to TTR [1] | binding to RBP relative to HPR [2] | quenching of RBP fluorescence ([2]; 0.5 μM Apo-RBP, 0-2 μM MPR, PBS, room temperature, 1 hour) | degree of quenching compared with other RBP ligands ([2]; controls 1 μM HPR, 1 μM atROL) | MPR concentration at which quenching saturated ([2]; for 0.5 μM of RBP) | binding to RBP (360 nm absorbance in RBP elution peak) ([1]; 10 μM Apo-RBP, 50 μM MPR) | reduction in A2E [3] | time required to regain dark sensitivity [4] | A2E levels after withdrawal (therapeutic latency effect) ([5]; chronic treatment (HPR 10 mg/kg i.p.) stopped after 28 days, measured 12, 28 and 42 days later) | photoreceptor function and ocular retinoid levels following withdrawal ([5]; mouse, in vivo) | 11-cis retinyl esters ([6]; increased 13-cis retinoic acid) | levels of 11-cis retinal ([6]; increased doses of 13-cis retinoic acid)
1 | CC1=C(/C=C/C(C)=C/C=C/C(C)=C/CO)C(C)(C)CCC1 [atROL, all-trans retinol] | binds to TTR | – | – | – | – | – | – | – | – | – | – | –
2 | COc1ccc(NC(=O)\C=C(C)/C=C/C=C(C)\C=C\C2=C(C)CCCC2(C)C)cc1 (stereo in doubt) [MPR, N-(4-methoxyphenyl)retinamide] | did not bind to TTR; also recorded: inhibits the binding of TTR to RBP | more weakly | concentration-dependent quenching | smaller than those by atROL and HPR | 1 µM | RBP binds to MPR | – | – | – | – | – | –
3 | CC1=C(/C=C/C(C)=C/C=C/C(C)=C\C(=O)O)C(C)(C)CCC1 [13-cis retinoic acid] | – | – | – | – | – | – | ~50% | several hours | not observed | quickly returned to baseline values | increased dramatically | significantly reduced

Reference: patent publication US20070015827A1, “Methods and compositions for treating ophthalmic conditions via serum retinol, serum retinol binding protein (RBP), and/or serum retinol-RBP modulation” (Sytera, Inc., priority 2005, published 2007)
